Laboratory results reported in patent publication US20260174744A1, “COMPOUNDS, COMPOSITIONS, AND METHODS OF TREATING RNA VIRAL INFECTIONS” (priority 2024, published 2026).
pEC50, pIC50: −log10 of the molar value.

What was measured:
HCV 1b = assay: microbe, parasite or virus in culture; assay type: cell-based; conditions: for HCV 1b - percent effect: @ 10 μM
[1] = XTT cell viability assay, Huh-luc/neo-ET; assay type: cell-based; conditions: human, Huh-luc/neo-ET cells, read-out: HCV 1b - TC50
Protocol: (§1) Twenty-four hours after seeding the cells, the cell culture supernatant was removed from each well and replaced with 175 μL fresh complete medium minus G418. Test compounds were evaluated at a high-test concentration of 10 μM and five serial half-logarithmic dilutions in three biological replicates. In three biological replicates, Sofosbuvir was evaluated in parallel at a high-test concentration of 1 μM and five serial half-logarithmic dilutions. Compounds were first serially diluted in DMSO to 400× of each final in-well concentration. An intermediate 8× solution was prepared in a complete medium and then added to the cells in a volume of 25 μL per well. A complete medium containing an equal percentage of DMSO (v/v) was added to vehicle-treated control cells. The final DMSO concentration was 0.25% (v/v) for all samples. The cells were incubated for an additional 72 hours at 37° C./5% CO2, then HCV replication was measured by luciferase activity and cell viability was assessed in parallel using an XTT colorimetric assay.
(§2) Huh-luc/neo-ET cell viability was measured at 72 hours after treatment using the tetrazolium dye XTT (2,3-bis(2-methoxy-4-nitro-5-sulfophenyl)-5[(phenylamino)carbonyl]-2H-tetrazolium hydroxide). Mitochondrial enzymes of metabolically active cells metabolize XTT-tetrazolium to a soluble formazan product. XTT solution was prepared fresh at 1 mg/mL in DMEM. Phenazine methosulfate (PMS) solution was prepared at 0.15 mg/mL in PBS and stored in the dark at −20° C. An XTT/PMS stock was prepared immediately before use by adding 40 μL of PMS per ml of XTT solution. Fifty microliters (50 μL) XTT/PMS were added per well, and the cells were incubated for 4 hours at 37° C. The cell culture plates were then sealed with adhesive plate sealers and shaken gently or inverted several times to mix the soluble formazan product. The formazan product was measured spectrophotometrically by absorbance at 450/650 nm on a Vmax plate reader (Molecular Devices). The raw data in Softmax Pro 5.4.2 software was imported into Microsoft Excel for further analysis. Data are presented as absorbance values (450/650 nm) or the percentage of viable cells relative to vehicle-treated control (mean+1−standard deviation, n=3 biological replicates from one independent experiment).

CoV229E = assay: Anti-Coronavirus 229E cytoprotection assay, MRC-5; assay type: cell-based; conditions: Human coronavirus 229E, MRC5, 6 days, XTT
[2] = system: MCF7 wild-type cell lines; assay: MCF7 growth inhibition assay (Cell Titre Glo 2.0); assay type: cell-based; conditions: Homo sapiens, 120 hours, read-out: MCF-7 IC50
Protocol: The growth inhibition properties of inhibitors on MCF7 wild-type cell lines were evaluated using the Cell Titre Glo 2.0 cell viability reagent. The assay utilized 384-well black clear bottom plates with 20 μl of MCF7 wild-type cell suspension mixed with reference/test compounds and 20 μl of Cell Titre Glo 2.0 reagent. Cells were seeded at a density of 1000 cells/well in DMEM High Glucose culture media+10% Fetal Bovine Serum (FBS). Staurosporine and Camptothecin served as positive controls for confirming cytotoxicity at a concentration of 30 μM, and vehicle control of 1% DMSO was used to standardize conditions across all test points. The assay and culture media both contained 1% DMSO. […] The incubation period for the assay was set at 120 hours, after which growth inhibition was assessed. Using a multi-mode reader, the assay readout was based on luminescence measured in Relative Light Units (RLUs). The viability luminescence signal was monitored continually from the same wells over an extended period, allowing for detailed analysis of cell viability. […]
Cells were maintained and seeded in 384 […] plates, maintaining 1000 cells/well. […] This was followed by the addition of CTG reagent as per the kit's instruction protocol for 30 minutes and RLU data to be recorded. Post plate read data to be analyzed using GraphPad Prism for software IC50 value generation. […]

[3] = Toxicity XTT in MRC-5 (229E cytoprotection assay); conditions: human
Huh-luc/neo-ET cells = assay: XTT cell viability assay, Huh-luc/neo-ET; assay type: cell-based; conditions: 72 hours, read-out: HCV 1b - TC50
Protocol: as §1, §2

MRC-5 cells = assay: Toxicity XTT in MRC-5 (229E cytoprotection assay); conditions: read-out: CoV229E - TC50; MRC-5; XTT; 6 days
Norovirus Norwalk Virus = assay: Norwalk virus CPE assay, HG23 (Method 6); assay type: cell-based
From the text: The antiviral assays were cell line based and consisted in transfecting each of the viruses tested in a compatible cell line. Upon infection and after drug treatment, viral survival and cell toxicity were reported from the readout of three different assays: cytopathic effect (CPE), viral yield reduction (VYR), or immunofluorescence (IF). A breakdown of the results obtained can be found in Table 3 in which EC50 values have been converted to account for variations in FBS concentrations across assays.
Compounds were tested in an assay medium containing 2% fetal bovine serum (FBS). Test compounds were added to cells prior to infection with virus at a multiplicity of infection (MOI) sufficient to induce visible cytopathic effect (CPE). […] Additionally, the EC90 was defined as the concentration required to achieve a 1 log10 reduction in viral titer. Dose-response curves depicting viral CPE (red line) and compound cytotoxicity (purple line) were generated to support these analyses.

[4] = Protein binding in FBS, rapid equilibrium dialysis (RED); conditions: 10% FBS (text/footnote)

SMILES	CC50 (Huh-luc/neo-ET cells) [µM]	CC50 (MRC-5 cells) [µM]	further results
COc1ccc(-c2c(Cc3ccc(OCCN4CCCCC4)cc3)c3ccc(OC)cc3n2C)cc1 [MCAA-01]	–	–	pEC50 (HCV 1b; Hepatitis C virus, Huh-luc/neo-ET replicon, 72 hours, luciferase): 5.44; CC50 at 72 h [1]: > 10 µM; pEC50 (CoV229E): 5.73; pIC50 [2]: < 5.00; CC50 at 6 days [3]: > 5 µM
O=C(O)c1ccc(-c2c(CC3CCCC3)c3ccc(F)cc3n2Cc2ccc(OCCN3CCCCC3)cc2)cc1 [MCAA-02]	> 10	> 5	–
O=C(O)c1ccc(-c2c(CC3CCCC3)c3ccc(F)cc3n2Cc2ccc(OCCC3CCCCC3)cc2)cc1 [MCAA-03]	> 10	2.47	–
Cc1c(-c2ccc(O)cc2)n(Cc2ccc(OCCC3CCCCC3)cc2)c2ccc(O)cc12 [MCAA-04]	> 10	2.7	–
COc1ccc(-c2c(Cc3ccc(OCCC4CCCCC4)cc3)c3ccc(OC)cc3n2C)cc1 [MCAA-05]	> 10	> 5	–
Fc1ccc(-c2cc3sccc3n2Cc2ccc(OCCN3CCCCC3)cc2)cc1 [MCAA-06]	> 10	1.53	–
Fc1ccc(-c2cc3sccc3n2Cc2ccc(OCCC3CCCCC3)cc2)cc1 [MCAA-07]	> 10	> 5	HCV 1b - percent effect (HCV 1b): 30% @ 10 μM
Nc1cccc2nc(-c3ccc(F)cc3)n(Cc3ccc(OCCN4CCCCC4)cc3)c12 [MCAA-08]	> 10	> 5	–
Nc1cccc2nc(-c3ccc(F)cc3)n(Cc3ccc(OCCC4CCCCC4)cc3)c12 [MCAA-09]	> 10	> 5	–
Nc1cccc2c1nc(-c1ccc(F)cc1)n2Cc1ccc(OCCN2CCCCC2)cc1 [MCAA-10]	> 10	> 5	–
Nc1cccc2c1nc(-c1ccc(F)cc1)n2Cc1ccc(OCCC2CCCCC2)cc1 [MCAA-11]	5.82	> 5	–
O=[N+]([O-])c1cccc2nc(-c3ccc(F)cc3)n(Cc3ccc(OCCN4CCCCC4)cc3)c12 [MCAA-12]	> 10	> 5	–
O=[N+]([O-])c1cccc2c1nc(-c1ccc(F)cc1)n2Cc1ccc(OCCN2CCCCC2)cc1 [MCAA-13]	> 10	> 5	–
O=[N+]([O-])c1cccc2nc(-c3ccc(F)cc3)n(Cc3ccc(OCCC4CCCCC4)cc3)c12 [MCAA-14]	> 10	> 5	HCV 1b - percent effect (HCV 1b): 34% @ 10 μM
O=[N+]([O-])c1cccc2c1nc(-c1ccc(F)cc1)n2Cc1ccc(OCCC2CCCCC2)cc1 [MCAA-15]	> 10	> 5	HCV 1b - percent effect (HCV 1b): 38% @ 10 μM
Cc1c(-c2ccc(O)cc2)n(Cc2ccc(OCCN3CCCCC3)cc2)c2ccc(O)cc12 [Pipendoxifene]	–	> 1	percent effect printed in EC50 column (Norovirus Norwalk Virus; 2% FBS, @ 5 μM): 31% @; percent effect printed in Corrected EC50 column (Norovirus Norwalk Virus; @ 1.25 μM (concentration corrected for 2% FBS)): 31% @ 1.25; unbound fraction [4]: 5%
CCC(CC)COC(=O)[C@H](C)N[P@](=O)(OC[C@H]1O[C@@](C#N)(c2ccc3c(N)ncnn23)[C@H](O)[C@@H]1O)Oc1ccccc1 [Remdesivir, reference compound]	–	> 1	–
CC(C)OC(=O)[C@H](C)N[P@](=O)(OC[C@H]1O[C@@H](n2ccc(=O)[nH]c2=O)[C@](C)(F)[C@@H]1O)Oc1ccccc1 [Sofosbuvir, reference compound]	> 1	–	–
